Assay results published in patent US20240116985A1, “STAPLED PEPTIDES AND METHODS THEREOF” (priority 2020, published 2024).
Like-named read-outs stand apart in the source and are kept apart here.

How the values were obtained:
[1] = molecular target: T1, full-length beta-Catenin (Uniprot ID P35222) (Homo sapiens, UniProt P35222); test: Fluorescence polarization IC50 (beta-catenin / 5FAM-TCF4 10-53 competition); format: binding; conditions: fluorescence polarization; read-out: beta-Catenin FP IC50
T1 construct: 10 nM full-length beta-Catenin (Uniprot ID P35222)
T1 sequence (P35222 1-781): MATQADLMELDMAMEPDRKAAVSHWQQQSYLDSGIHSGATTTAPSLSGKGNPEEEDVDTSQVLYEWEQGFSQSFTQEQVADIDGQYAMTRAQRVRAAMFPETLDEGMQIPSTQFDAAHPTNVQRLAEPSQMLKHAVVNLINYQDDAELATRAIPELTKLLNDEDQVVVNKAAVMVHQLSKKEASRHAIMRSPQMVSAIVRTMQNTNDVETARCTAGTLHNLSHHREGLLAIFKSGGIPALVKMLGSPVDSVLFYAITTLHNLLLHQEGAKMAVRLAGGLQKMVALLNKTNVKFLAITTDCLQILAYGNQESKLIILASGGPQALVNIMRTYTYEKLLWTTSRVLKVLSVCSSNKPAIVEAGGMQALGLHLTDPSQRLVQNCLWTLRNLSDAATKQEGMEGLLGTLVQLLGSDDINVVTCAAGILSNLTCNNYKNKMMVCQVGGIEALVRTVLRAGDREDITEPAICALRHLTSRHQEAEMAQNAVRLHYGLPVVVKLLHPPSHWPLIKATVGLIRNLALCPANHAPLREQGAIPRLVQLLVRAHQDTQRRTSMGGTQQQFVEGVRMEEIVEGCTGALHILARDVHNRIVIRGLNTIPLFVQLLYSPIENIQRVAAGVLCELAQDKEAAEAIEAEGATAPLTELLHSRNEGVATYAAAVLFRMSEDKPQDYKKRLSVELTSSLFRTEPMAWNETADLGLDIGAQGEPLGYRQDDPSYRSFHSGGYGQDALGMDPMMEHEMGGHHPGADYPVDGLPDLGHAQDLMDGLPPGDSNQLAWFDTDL

[2] = molecular target: T2, beta-catenin/TCF4 engagement (Homo sapiens, UniProt P35222); test: Nano-BRET target engagement assay (B-cat-Halo & TCF4-Luc in HEK293 cells); format: cell-based; conditions: read-out: NanoBRET Abs IC50
T2 construct: expressed in transfected cells; host or cells: HEK293
T2 sequence (P35222 1-781): T1 sequence (P35222 1-781)

Compound | IC50 [1] [µM] | IC50 [2] [µM] | IC50 ([2]; absolute IC50) [µM]
CC(=O)N1CCC[C@]12CC=CCCCC1(CCCC=CCCCOC(=O)N3CC[C@@](C(=O)N[C@@H](Cc4ccccc4Cl)C(=O)N[C@@H](Cc4csc5ccccc45)C(=O)N[C@@H](CO)C(N)=O)(C3)NC(=O)[C@H](CC(C)C)NC(=O)[C@H](Cc3ccccc3)NC(=O)[C@H](C)NC(=O)[C@H](C)NC(=O)[C@H](Cc3ccc(F)c(C(=O)O)c3)NC(=O)[C@H](CC(=O)O)NC1=O)NC(=O)[C@H](CC(C)(C)C)NC(=O)[C@H](CC(=O)O)NC2=O (stereo partly drawn) [I-2205, Ac-PL3-Asp-Npg-B5-Asp-4F3COOHF-Ala-Ala-Phe-Leu-PyrS2-2C1F-BztA-Ser-NH2] | 0.018 | 3.2 | 
CC(=O)N1CCC[C@]12CC=CCCCC1(CCCC=CCCCOC(=O)N3CC[C@@](C(=O)N[C@@H](Cc4ccsc4)C(=O)N[C@@H](Cc4csc5ccccc45)C(=O)N[C@@H](C)C(N)=O)(C3)NC(=O)[C@H](CC(C)C)NC(=O)[C@H](Cc3ccccc3)NC(=O)[C@H](C)NC(=O)[C@H](CCC(N)=O)NC(=O)[C@H](Cc3ccc(F)c(C(=O)O)c3)NC(=O)[C@H](CC(=O)O)NC1=O)NC(=O)[C@H](CC(C)(C)C)NC(=O)[C@H](CC(=O)O)NC2=O (stereo partly drawn) [I-2206, Ac-PL3-Asp-Npg-B5-Asp-4F3COOHF-Gln-Ala-Phe-Leu-PyrS2-3Thi-BztA-Ala-NH2] | 0.007 | 7.1 | 
CC(=O)N1CCC[C@]12CC=CCCCC1(CCCC=CCCCOC(=O)N3CC[C@@](C(=O)N[C@@H](Cc4ccsc4)C(=O)N[C@@H](Cc4csc5ccccc45)C(=O)N[C@@H](CO)C(N)=O)(C3)NC(=O)[C@H](CC(C)C)NC(=O)[C@H](Cc3ccccc3)NC(=O)[C@H](C)NC(=O)[C@H](C)NC(=O)[C@H](Cc3cc(C(=O)O)cc(C(F)(F)F)c3)NC(=O)[C@H](CC(=O)O)NC1=O)NC(=O)[C@H](CC(C)(C)C)NC(=O)[C@H](CC(=O)O)NC2=O (stereo partly drawn) [I-2209, Ac-PL3-Asp-Npg-B5-Asp-5F3Me3COOHF-Ala-Ala-Phe-Leu-PyrS2-3Thi-BztA-Ser-NH2] | 0.05 |  | 18.6
CC(=O)N1CCC[C@]12CC=CCCCC1(CCCC=CCCCOC(=O)N3CC[C@@](C(=O)N[C@@H](Cc4ccccc4Cl)C(=O)N[C@@H](Cc4csc5ccccc45)C(=O)N[C@@H](CO)C(N)=O)(C3)NC(=O)[C@H](CC(C)C)NC(=O)[C@H](Cc3ccccc3)NC(=O)[C@H](C)NC(=O)[C@H](C)NC(=O)[C@H](Cc3cc(C(=O)O)cc(C(F)(F)F)c3)NC(=O)[C@H](CC(=O)O)NC1=O)NC(=O)[C@H](CC(C)(C)C)NC(=O)[C@H](CC(=O)O)NC2=O (stereo partly drawn) [I-2210, Ac-PL3-Asp-Npg-B5-Asp-5F3Me3COOHF-Ala-Ala-Phe-Leu-PyrS2-2C1F-BztA-Ser-NH2] | 0.128 |  | 12.4
CC(=O)N1CCC[C@]12CC=CCCCC1(CCCC=CCCCOC(=O)N3CC[C@@](C(=O)N[C@@H](Cc4ccsc4)C(=O)N[C@@H](Cc4ccc(Cl)c(Cl)c4)C(=O)N[C@@H](C)C(N)=O)(C3)NC(=O)[C@H](C(C)C)NC(=O)[C@H](Cc3ccccc3)NC(=O)[C@H](C)NC(=O)[C@H](CCC(N)=O)NC(=O)[C@H](Cc3cccc(C(=O)O)c3)NC(=O)[C@H](CC(=O)O)NC1=O)NC(=O)[C@H](CC(C)(C)C)NC(=O)[C@H](CC(=O)O)NC2=O (stereo partly drawn) [I-2217, Ac-PL3-Asp-Npg-B5-Asp-3COOHF-Gln-Ala-Phe-Val-PyrS2-3Thi-34C1F-Ala-NH2] | 0.006 |  | 2.1
CC(=O)N1CCC[C@]12CC=CCCCC1(CCCC=CCCCOC(=O)N3CC[C@@](C(=O)N[C@@H](Cc4ccccc4C(F)(F)F)C(=O)N[C@@H](Cc4ccc(Cl)c(Cl)c4)C(=O)N[C@@H](CO)C(N)=O)(C3)NC(=O)[C@H](CC(C)C)NC(=O)[C@H](Cc3ccccc3)NC(=O)[C@H](C)NC(=O)[C@H](C)NC(=O)[C@H](Cc3cccc(C(=O)O)c3)NC(=O)[C@H](CC(=O)O)NC1=O)NC(=O)[C@H](CC(C)(C)C)NC(=O)[C@H](CC(=O)O)NC2=O (stereo partly drawn) [I-2218, Ac-PL3-Asp-Npg-B5-Asp-3COOHF-Ala-Ala-Phe-Leu-PyrS2-2F3MeF-34C1F-Ser-NH2] | 0.034 |  | 5.1
CC(=O)N1CCC[C@]12CC=CCCCC1(CCCC=CCCCOC(=O)N3CC[C@@](C(=O)N[C@@H](Cc4ccccc4C(F)(F)F)C(=O)N[C@@H](Cc4ccc(Cl)c(Cl)c4)C(=O)N[C@@H](C)C(N)=O)(C3)NC(=O)[C@H](CC(C)C)NC(=O)[C@H](Cc3ccccc3)NC(=O)[C@H](C)NC(=O)[C@H](CCC(N)=O)NC(=O)[C@H](Cc3cccc(C(=O)O)c3)NC(=O)[C@H](CC(=O)O)NC1=O)NC(=O)[C@H](CC(C)(C)C)NC(=O)[C@H](CC(=O)O)NC2=O (stereo partly drawn) [I-2219, Ac-PL3-Asp-Npg-B5-Asp-3COOHF-Gln-Ala-Phe-Leu-PyrS2-2F3MeF-34C1F-Ala-NH2] | 0.021 |  | 2.7

Further molecules by falling IC50 [1], results first:

IC50 [1] [µM] | IC50 [2] [µM] | IC50 ([2]; absolute IC50) [µM] | Compound
0.027 |  | 5.7 | CC(=O)N1CCC[C@]12CC=CCCCC1(CCCC=CCCCOC(=O)N3CC[C@@](C(=O)N[C@@H](Cc4ccsc4)C(=O)N[C@@H](Cc4csc5ccccc45)C(=O)N[C@@H](CCC(N)=O)C(N)=O)(C3)NC(=O)[C@H](CC(C)C)NC(=O)[C@H](Cc3ccccc3)NC(=O)[C@H](C)NC(=O)[C@H](C)NC(=O)[C@H](Cc3cc(C(=O)O)cc(C(F)(F)F)c3)NC(=O)[C@H](CC(=O)O)NC1=O)NC(=O)[C@H](CC(C)(C)C)NC(=O)[C@H](CC(=O)O)NC2=O (stereo partly drawn) [I-2208, Ac-PL3-Asp-Npg-B5-Asp-5F3Me3COOHF-Ala-Ala-Phe-Leu-PyrS2-3Thi-BztA-Gln-NH2]
0.023 |  | 12.9 | CC(=O)N1CCC[C@]12CC=CCCCC1(CCCC=CCCCOC(=O)N3CC[C@@](C(=O)N[C@@H](Cc4ccsc4)C(=O)N[C@@H](Cc4csc5ccccc45)C(=O)N[C@@H](C)C(N)=O)(C3)NC(=O)[C@H](CC(C)C)NC(=O)[C@H](Cc3ccccc3)NC(=O)[C@H](C)NC(=O)[C@H](CCC(N)=O)NC(=O)[C@H](Cc3cc(C(=O)O)cc(C(F)(F)F)c3)NC(=O)[C@H](CC(=O)O)NC1=O)NC(=O)[C@H](CC(C)(C)C)NC(=O)[C@H](CC(=O)O)NC2=O (stereo partly drawn) [I-2211, Ac-PL3-Asp-Npg-B5-Asp-5F3Me3COOHF-Gln-Ala-Phe-Leu-PyrS2-3Thi-BztA-Ala-NH2]
0.016 |  | 3.2 | CC(=O)N1CCC[C@]12CC=CCCCC1(CCCC=CCCCOC(=O)N3CC[C@@](C(=O)N[C@@H](Cc4ccsc4)C(=O)N[C@@H](Cc4csc5ccccc45)C(=O)N[C@@H](C)C(N)=O)(C3)NC(=O)[C@H](CC(C)C)NC(=O)[C@H](Cc3ccccc3)NC(=O)[C@H](C)NC(=O)C(C)(C)NC(=O)[C@H](Cc3ccc(F)c(C(=O)O)c3)NC(=O)[C@H](CC(=O)O)NC1=O)NC(=O)[C@H](CC(C)(C)C)NC(=O)[C@H](CC(=O)O)NC2=O (stereo partly drawn) [I-2207, Ac-PL3-Asp-Npg-B5-Asp-4F3COOHF-Aib-Ala-Phe-Leu-PyrS2-3Thi-BztA-Ala-NH2]
0.012 |  | 16.3 | CC(=O)N1CCC[C@]12CC=CCCCC1(CCCC=CCCCOC(=O)N3CC[C@@](C(=O)N[C@@H](Cc4ccsc4)C(=O)N[C@@H](Cc4ccc(Cl)cc4)C(=O)N[C@@H](CCC(N)=O)C(N)=O)(C3)NC(=O)[C@H](CC(C)C)NC(=O)[C@H](Cc3ccccc3)NC(=O)[C@H](C)NC(=O)[C@H](C)NC(=O)[C@H](Cc3cccc(C(=O)O)c3)NC(=O)[C@H](CC(=O)O)NC1=O)NC(=O)[C@H](CC(C)(C)C)NC(=O)[C@H](CC(=O)O)NC2=O (stereo partly drawn) [I-2220, Ac-PL3-Asp-Npg-B5-Asp-3COOHF-Ala-Ala-Phe-Leu-PyrS2-3Thi-4C1F-Gln-NH2]
0.01 | 3.3 |  | CC(=O)N1CCC[C@]12CC=CCCCC1(CCCC=CCCCOC(=O)N3CC[C@@](C(=O)N[C@@H](Cc4ccccc4Cl)C(=O)N[C@@H](Cc4csc5ccccc45)C(=O)N[C@@H](CCC(N)=O)C(N)=O)(C3)NC(=O)[C@H](CC(C)C)NC(=O)[C@H](Cc3ccccc3)NC(=O)[C@H](C)NC(=O)[C@H](C)NC(=O)[C@H](Cc3ccc(F)c(C(=O)O)c3)NC(=O)[C@H](CC(=O)O)NC1=O)NC(=O)[C@H](CC(C)(C)C)NC(=O)[C@H](CC(=O)O)NC2=O (stereo partly drawn) [I-2204, Ac-PL3-Asp-Npg-B5-Asp-4F3COOHF-Ala-Ala-Phe-Leu-PyrS2-2C1F-BztA-Gln-NH2]
0.007 |  | 3.4 | CC(=O)N1CCC[C@]12CC=CCCCC1(CCCC=CCCCOC(=O)N3CC[C@@](C(=O)N[C@@H](Cc4ccsc4)C(=O)N[C@@H](Cc4ccc(Cl)c(Cl)c4)C(=O)N[C@@H](CCC(N)=O)C(N)=O)(C3)NC(=O)[C@H](CC(C)C)NC(=O)[C@H](Cc3ccccc3)NC(=O)[C@H](C)NC(=O)[C@H](C)NC(=O)[C@H](Cc3cccc(C(=O)O)c3)NC(=O)[C@H](CC(=O)O)NC1=O)NC(=O)[C@H](CC(C)(C)C)NC(=O)[C@H](CC(=O)O)NC2=O (stereo partly drawn) [I-2216, Ac-PL3-Asp-Npg-B5-Asp-3COOHF-Ala-Ala-Phe-Leu-PyrS2-3Thi-34C1F-Gln-NH2]
